In ChEMBL document CHEMBL5500396, “Discovery, Multiparametric Optimization, and Solid-State Driven Identification of CHF-6550, a Novel Soft Dual Pharmacology Muscarinic Antagonist and β2 Agonist (MABA) for the Inhaled Treatment of Respiratory Diseases” (J Med Chem, 2024):

Assays:
[1] = in vitro; details: guinea pig, plasma
Description: Stability in guinea pig plasma assessed as half-life at 5 uM incubated for 120 mins by LC-MS/MS analysis

[2] = in vitro; details: rat, hepatocytes
Description: Metabolic stability in rat hepatocytes assessed as clearance measured per 10^6 cells at 1 uM incubated for 90 mins by LC-MS/MS analysis

[3] = in vitro; details: human, hepatocytes
Description: Metabolic stability in human hepatocytes assessed as clearance measured per 10^6 cells at 1 uM incubated for 90 mins by LC-MS/MS analysis

[4] = in vitro; details: rat, plasma
Description: Stability in rat plasma assessed as half-life at 5 uM incubated for 120 mins by LC-MS/MS analysis

[5] = in vitro; details: human, plasma
Description: Stability in human plasma assessed as half-life at 5 uM incubated for 120 mins by LC-MS/MS analysis

[6] = target: Beta-2 adrenergic receptor (Homo sapiens, UniProt P07550)
Chain of Beta-2 adrenergic receptor (P07550 whole entry): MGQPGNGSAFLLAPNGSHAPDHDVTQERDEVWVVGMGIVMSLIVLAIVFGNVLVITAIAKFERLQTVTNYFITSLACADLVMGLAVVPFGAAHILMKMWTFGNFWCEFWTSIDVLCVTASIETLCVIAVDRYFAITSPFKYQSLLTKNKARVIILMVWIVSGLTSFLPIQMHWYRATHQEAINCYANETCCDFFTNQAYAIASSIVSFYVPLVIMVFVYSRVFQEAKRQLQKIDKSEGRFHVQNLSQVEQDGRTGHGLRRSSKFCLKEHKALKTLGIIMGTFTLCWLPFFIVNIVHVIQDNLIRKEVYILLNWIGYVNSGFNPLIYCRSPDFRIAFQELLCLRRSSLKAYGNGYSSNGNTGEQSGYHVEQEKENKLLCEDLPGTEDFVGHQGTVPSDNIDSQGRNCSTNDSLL
Description: Displacement of [125I]-Cyanopindolol from human beta2 adrenoceptor assessed as inhibition constant incubated for 1 hrs by Microbeta scintillation counter

[7] = target: Muscarinic acetylcholine receptor M3 (Homo sapiens, UniProt P20309)
Chain of Muscarinic acetylcholine receptor M3 (P20309 whole entry): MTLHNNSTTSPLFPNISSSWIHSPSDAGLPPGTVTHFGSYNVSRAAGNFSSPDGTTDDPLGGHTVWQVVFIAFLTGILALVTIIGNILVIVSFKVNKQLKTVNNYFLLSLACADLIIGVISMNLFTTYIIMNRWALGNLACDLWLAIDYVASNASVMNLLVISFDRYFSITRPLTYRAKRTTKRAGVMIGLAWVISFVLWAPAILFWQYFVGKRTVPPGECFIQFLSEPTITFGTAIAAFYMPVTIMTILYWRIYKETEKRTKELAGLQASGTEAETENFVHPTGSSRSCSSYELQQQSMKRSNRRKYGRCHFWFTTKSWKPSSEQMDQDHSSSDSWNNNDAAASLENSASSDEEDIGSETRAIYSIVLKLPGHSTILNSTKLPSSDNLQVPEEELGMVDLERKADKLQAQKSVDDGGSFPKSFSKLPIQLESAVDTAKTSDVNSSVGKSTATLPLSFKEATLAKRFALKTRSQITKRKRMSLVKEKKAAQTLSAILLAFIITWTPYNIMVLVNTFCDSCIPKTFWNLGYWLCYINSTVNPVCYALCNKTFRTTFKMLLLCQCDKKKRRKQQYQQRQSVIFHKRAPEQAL
Description: Displacement of Scopolamine methyl chloride,[N-methyl-3H] from human muscarinic M3 receptor assessed as inhibition constant incubated for 2 hrs by Microbeta scintillation counter

SMILES	half-life at 2 h, 5 µM [1] [min]	hepatocyte CLint at 1.5 h, 1 µM [2] [µL/min/1e6 cells]	hepatocyte CLint at 1.5 h, 1 µM [3] [µL/min/1e6 cells]	half-life at 2 h, 5 µM [4] [min]	half-life at 2 h, 5 µM [5] [min]	Ki [6] [nM]	Ki [7] [nM]
COc1cc(C(=O)NCCCOc2cccc([C@](O)(C(=O)O[C@@H]3CCCN(C)C3)c3ccccc3)c2)c(F)cc1CNC[C@H](O)c1ccc(O)c2[nH]c(=O)ccc12	> 150	40	7	87	> 150	0.0158	
O=C(NCCCOc1cccc([C@](O)(C(=O)O[C@@H]2CCN(Cc3ccccc3)C2)c2ccccc2)c1)c1ccc(CNC[C@H](O)c2ccc(O)c3[nH]c(=O)ccc23)cc1	37	69	23	5	> 150	0.158	
CN1CCC[C@@H](OC(=O)[C@](O)(c2ccccc2)c2cccc(OCCCNC(=O)c3cnc(CNC[C@H](O)c4ccc(O)c5[nH]c(=O)ccc45)nc3)c2)C1.O=CO	8	33	< 2	13	> 150	0.0251	
O=C(NCCCCNC[C@H](O)c1ccc(O)c2[nH]c(=O)ccc12)c1ccc(C(=O)N2CCC(C(=O)O[C@H]3CN4CCC3CC4)(c3ccccc3)CC2)cc1						0.631	1.58
CN1CCC[C@H](OC(=O)[C@](O)(c2ccccc2)c2cccc(OCCCNC(=O)c3ccc(CNC[C@H](O)c4ccc(O)c5[nH]c(=O)ccc45)cc3)c2)C1.O=CO.O=CO	51	52	5	8	> 150	0.0251	
O=C(NCCCOc1cccc([C@](O)(C(=O)O[C@H]2CCN(Cc3ccccc3)C2)c2ccccc2)c1)c1ccc(CNC[C@H](O)c2ccc(O)c3[nH]c(=O)ccc23)cc1	12	71	22	15	> 150	0.398	
O=C(NCCCOc1cccc([C@](O)(C(=O)OC[C@H]2CCN(Cc3ccccc3)C2)c2ccccc2)c1)c1ccc(CNC[C@H](O)c2ccc(O)c3[nH]c(=O)ccc23)cc1	56	38	7	32	> 128	0.126	
O=C(NCCCOc1cccc([C@](O)(C(=O)OC2CCN(Cc3ccccc3)CC2)c2ccccc2)c1)c1ccc(CNC[C@H](O)c2ccc(O)c3[nH]c(=O)ccc23)cc1	8	64	12	135	> 150	0.0501	
COc1cc(C(=O)NCCCOc2cccc([C@](O)(C(=O)O[C@@H]3CCCN(C)C3)c3ccccc3)c2)c(Cl)cc1CNC[C@H](O)c1ccc(O)c2[nH]c(=O)ccc12	133	36	6	54	> 150	0.0251	
COc1cc(C(=O)NCCCOc2cccc([C@](O)(C(=O)O[C@@H]3CCCN(C)C3)c3ccccc3)c2)ccc1CNC[C@H](O)c1ccc(O)c2[nH]c(=O)ccc12	112	29	4	17	> 150	0.0158	
O=C(NCCCOc1cccc([C@](O)(C(=O)OCC2CCN(C3CCC3)CC2)c2ccccc2)c1)c1ccc(CNC[C@H](O)c2ccc(O)c3[nH]c(=O)ccc23)cc1	119	38	6	19	> 150	0.0251	1
COc1cc(CNC[C@H](O)c2ccc(O)c3[nH]c(=O)ccc23)c(Cl)cc1C(=O)NCCCOc1cccc([C@](O)(C(=O)O[C@@H]2CCCN(C)C2)c2ccccc2)c1	> 150	66	7	130	> 150	0.1	
O=C(c1ccc(OCc2ccc(CNC[C@H](O)c3ccc(O)c4[nH]c(=O)ccc34)cc2)cc1)N1CC(C(=O)OCC2CCN(Cc3ccccc3)CC2)(c2ccccc2)C1						0.251	7.94
CN1CCC[C@@H](OC(=O)[C@](O)(c2ccccc2)c2cccc(OCCCNC(=O)c3ccc(CNC[C@H](O)c4ccc(O)c5[nH]c(=O)ccc45)nc3)c2)C1.O=CO.O=CO	> 150	20	< 2	17	> 150	0.0251	
O=C(NCCCOc1cccc([C@](O)(C(=O)O[C@H]2CCCN(Cc3ccccc3)C2)c2ccccc2)c1)c1ccc(CNC[C@H](O)c2ccc(O)c3[nH]c(=O)ccc23)cc1.O=CO	15	53	19	11	> 150	0.501	
O=C(NCCCOc1cccc([C@](O)(C(=O)O[C@@H]2CCCN(Cc3ccccc3)C2)c2ccccc2)c1)c1ccc(CNC[C@H](O)c2ccc(O)c3[nH]c(=O)ccc23)cc1.O=CO	> 150	78	20	5	> 150	0.316	
O=C(NCCCOc1cccc([C@](O)(C(=O)OC[C@@H]2CCN(Cc3ccccc3)C2)c2ccccc2)c1)c1ccc(CNC[C@H](O)c2ccc(O)c3[nH]c(=O)ccc23)cc1	58	37	5	15	> 150	0.0794	
O=C(NCCCOc1cccc([C@](O)(C(=O)OCC2CCN(C3CCCC3)CC2)c2ccccc2)c1)c1ccc(CNC[C@H](O)c2ccc(O)c3[nH]c(=O)ccc23)cc1	139	51	5	14	> 150	0.02	1.58
Cc1cc(C(=O)NCCCOc2cccc([C@](O)(C(=O)O[C@@H]3CCCN(C)C3)c3ccccc3)c2)c(C)cc1CNC[C@H](O)c1ccc(O)c2[nH]c(=O)ccc12	142	49	3	30	> 150	0.0158	
CN1CCC[C@@H](OC(=O)[C@](O)(c2ccccc2)c2cccc(OCCCNC(=O)c3cccc(CNC[C@H](O)c4ccc(O)c5[nH]c(=O)ccc45)c3)c2)C1	98	28	5	8	> 150	2	
COc1cc(C(=O)NCCCOc2cccc([C@](O)(C(=O)O[C@@H]3CCCN(C)C3)c3ccccc3)c2)c(OC)cc1CNC[C@H](O)c1ccc(O)c2[nH]c(=O)ccc12	> 150	61	6	> 150	> 150	0.0631	
CN1CCC[C@@H](OC(=O)[C@](O)(c2ccccc2)c2cccc(OCCCNC(=O)c3ccc(CNC[C@H](O)c4ccc(O)c5[nH]c(=O)ccc45)c(F)c3)c2)C1.O=CO	84	54	6	15	> 150	0.0126	
O=C(NCCCCNC[C@H](O)c1ccc(O)c2[nH]c(=O)ccc12)c1ccc(C(=O)NC2(C(=O)O[C@H]3CN4CCC3CC4)CCc3ccccc32)cc1 (single isomer, unassigned)						0.398	> 50.1
O=C(NCCCCNC[C@H](O)c1ccc(O)c2[nH]c(=O)ccc12)c1cccc(C(=O)NC2(C(=O)O[C@H]3CN4CCC3CC4)CCc3ccccc32)c1 (single isomer, unassigned)						1.58	12.6
